Our source for the IC50 values is US20250084063A1 (Incyte Corporation, priority 2023, published 2025).

What is called IC50 is the concentration needed to halve the response being measured.

Common to all, as to type: cell-based
Test [1] deals with T1, MRGPRX2 (Homo sapiens, UniProt Q96LB1).
T1 sequence (Q96LB1 1-330): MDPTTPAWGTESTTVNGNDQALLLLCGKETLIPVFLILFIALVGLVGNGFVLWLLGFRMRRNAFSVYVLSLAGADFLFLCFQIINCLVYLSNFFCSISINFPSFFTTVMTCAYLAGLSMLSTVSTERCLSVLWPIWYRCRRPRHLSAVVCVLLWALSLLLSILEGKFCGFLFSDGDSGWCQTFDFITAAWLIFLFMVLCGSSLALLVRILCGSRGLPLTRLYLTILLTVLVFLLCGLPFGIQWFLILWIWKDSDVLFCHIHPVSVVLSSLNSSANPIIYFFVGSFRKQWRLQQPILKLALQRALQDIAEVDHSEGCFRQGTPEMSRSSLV
Briefly: MRGPRX2 FLIPR calcium mobilization assay. Also on record: host or cells: CHO-K1. To be noted: CHO-K1 cells stably expressing human MRGPRX2; Ca2+ release, agonist Cortistatin-14 at EC80. As for the experimental part:
Example A. MRGPRX2 FLIPR Calcium Mobilization Assay
Chinese hamster ovary (CHO-K1) cells stably expressing human MRGPRX2 were purchased from Genescript (Piscataway, NJ). The cells were maintained in culture medium (Ham's F-12K) containing 10% (v/v) FBS, 200 μg/mL Zeocin, 100 units/mL penicillin G and 100 μg/mL streptomycin (Life Technologies, Carlsbad, CA). For the assay, the cells were harvested and resuspended with culture medium without Zeocin before plating at 8000 cells per well in 20 μL in 384-well black clear bottom cell culture plates (VWR, Radnor, PA). After 24 h culture at 37° C. and 5% CO2, the cells were loaded with 20 μL/well of calcium dye (FLIPR Calcium 6 Assay Kit, Molecular Devices, San Jose, CA) diluted in loading buffer (1×Hank's Balanced Salt Solution (HBSS), 5 mM probenecid, 20 mM 4-(2-hydroxyethyl)-1-piperazineethanesulfonic acid (HEPES), pH 7.4, VWR, Radnor, PA) followed with 45 min incubation at 37° C. and 40 min at room temperature in the dark. Cells were then treated with the addition of 10 uL/well test compounds with a range of increasing concentrations diluted in the assay buffer (1×HBSS, 20 mM HEPES, pH 7.4, VWR, Radnor, PA) with FLIPR Penta (Molecular Devices. San Jose, CA) and incubated for 30 min. at room temperature. Ca^2+ release was measured with FLIPR Penta with 10 seconds basal fluorescence measurement, then 12.5 μL of 5× agonist Cortistatin-14 (Tocris, Minneapolis, MN) at final concentration corresponding to the EC80 were added followed with continued fluorescence signal monitoring for an additional 110 seconds. The base line adjusted (median of first 10s base line) max value of the Relative Fluorescence Unit (RFU) was plotted against compound concentrations. Wells with no compound were served as the positive controls, and wells with high concentration of reference antagonist were used as negative controls. IC50 curves were globally fitted with 3- or 4-parameter Hill equation in a Genedata Screener (Genedata Basel, Switzerland).

The target of test [2] is T1, MRGPRX2. As to the kind of experiment: MRGPRX2 IP1 HTRF assay. Also on record: host or cells: CHO-K1. To be noted: CHO-K1 cells stably expressing human MRGPRX2; IP1 accumulation, agonist Cortistatin 14 1 μM. The source says:
Example B: MRGPRX2 IP1 HTRF Assay
This assay measures compound inhibition of myo-Inositol 1 phosphate (IP1) accumulation in CHO-K1 cells. Chinese hamster ovary (CHO-K1) cells stably expressing human MRGPRX2 were purchased from GenScript (Piscataway, NJ).
For the HTRF IP1 determination, an IP-One GqKit (Perkin Elmer Cisbio, Waltham, MA), which includes all reagents and buffers in this protocol, was used. The cells were maintained in culture medium (Ham's F-12K) containing 10% (v/v) FBS, and 200 μg/mL Zeocin. For the assay, the cells were harvested and resuspended in culture medium with 2% FBS and without Zeocin, then were passed through a 40 μm filter. Cells were added at 20000 cells in a 5 μL/well to a 384-well white small volume cell culture plate (Greiner VWR, Radnor, PA) which contained 50 nL/well of test compound serially diluted at a selected concentration range in DMSO. 5 μL/well of prepared 2× Stimulation Buffer2 was then added to plates and was incubated at 37° C. with 5% CO2 for 1 h. 5 μL/well of agonist Cortistatin 14 (Bio-TechneR&D Systems, Minneapolis, MN) in 1× Stimulation Buffer 2, for a 1 μM final concentration, was then added to plates and incubated at 37° C. with 5% CO2 for 1 h. 6 μL/well of 1:20 diluted Detection Reagent Mix (d2 and Cryptate) was added to the plates and incubated for 1 h in the dark. Plates were read on the PHERAstar microplate reader (BMG Labtech Cary, NC) to determine the HTRF ratio of the acceptor and donor emission signals. The IP1 concentrations were calculated from a standard curve following the IP-One GQ kit instructions. Wells with DMSO only and wells with high concentration of reference antagonist were used as controls for normalization. Compound IC50 curves were globally fitted with 3- or 4-parameter Hill equation in a Genedata Screener (Genedata Basel, Switzerland).
In general terms: TR-FRET usually uses a lanthanide donor and a delayed reading to cut background.

In test [3] the target is T1, MRGPRX2. As to the kind of experiment: MRGPRX2 β-Arrestin assay. Also on record: host or cells: PathHunter CHO-K1. The settings on record: PathHunter CHO-K1 MRGPRX2 β-Arrestin cell line; agonist Cortistatin 14 0.25 μM. The source says: Example C: MRGPRX2 β-Arrestin Assay
This assay measures compound inhibition of β-Arrestin recruitment, which is part of the G protein-independent pathway that results from the ligand-activated GPCR phosphorylation by specific GPCR kinases. The PathHunter CHO-K1 MRPGRX2 B-Arrestin Cell line stably expressing ProLink tagged MRGPRX2 and Enzyme Acceptor Tagged B-Arrestin was purchased from Eurofins DiscoverX, (Fremont, CA).
The cells were maintained in culture medium from the Europhins DiscoverX Cell Culture Kit-107 which includes FBS, hygromycin B and G418. For the assay, the cells were harvested and were resuspended with Cell Plating Reagent 2 (Eurofins DiscoverX). Cells were added 10000 cells in 25 µL/well to a 384-well black cell culture plate (Greiner VWR, Radnor, PA) which contained 125 nL/well of compound at a selected serially diluted concentration range or DMSO. The plate was incubated at 37° C. with 5% CO2 for 1 h. 2 μL/well of agonist Cortistatin 14 was diluted in Protein Dilution Buffer, (Eurofins DiscoverX) for a final concentration of 0.25 μM, was added and the plate was incubated at 37° C. with 5% CO2 for 90 min. 14 μL/well of Detection Reagent Mix (PathHunter Detection Kit, Eurofins DiscoverX) was added to the plates and further incubated for 1 h in the dark. Plates were read on the PHERAstar microplate reader (BMG Labtech Cary, NC) measuring luminescence 0.1 to 1 second per well. Data was normalized using DMSO only wells and wells with high concentration of reference antagonist as controls. Compound IC50 curves were globally fitted with 3- or 4-parameter Hill equation in a Genedata Screener (Genedata Basel, Switzerland).

For `Cc1cccc2nc(C(F)(F)F)cc(NCC3(c4ccc(F)cn4)CN(C(N)=O)C3)c12` [Example 62, 3-(5-Fluoropyridin-2-yl)-3-(((5-methyl-2-(trifluoromethyl)quinolin-4-yl)amino)methyl)azetidine-1-carboxamide], the IC50 on MRGPRX2 [1] and at MRGPRX2 [2] was over 1000 nM in each case.
As for `NC(=O)N1CC(CNc2cc(C(F)(F)F)nc3cc(C(F)(F)F)ccc23)(c2ccc(F)cn2)C1` [Example 63, 3-(((2,7-Bis(trifluoromethyl)quinolin-4-yl)amino)methyl)-3-(5-fluoropyridin-2-yl)azetidine-1-carboxamide], the figures for the concentration for half-maximal inhibition (IC50) at MRGPRX2 [1] and at MRGPRX2 [2] were 100 to 1000 nM and over 1000 nM, respectively.
In turn, `NC(=O)N1CC(CNc2cc(C(F)(F)F)nc3ccncc23)(c2ccc(F)cc2)C1` [Example 65, 3-(4-Fluorophenyl)-3-(((2-(trifluoromethyl)-1,6-naphthyridin-4-yl)amino)methyl)azetidine-1-carboxamide] displayed an IC50 on MRGPRX2 [3] of 100 to 1000 nM.
Same read-out and setting: in the case of `FC(F)(F)c1cc(NCC2(n3ccc(C(F)(F)F)n3)CNC2)c2cc(Cl)ccc2n1` [Example 68, 6-Chloro-2-(trifluoromethyl)-N-((3-(3-(trifluoromethyl)-1H-pyrazol-1-yl)azetidin-3-yl)methyl)quinolin-4-amine] it was 100 to 1000 nM; in that of `[2H]C([2H])([2H])NC(=O)N1CC(CNc2cc(C(F)(F)F)nc3ccc(Cl)cc23)(n2ncc3c2CCC3)C1` [Example 69, 3-(((6-Chloro-2-(trifluoromethyl)quinolin-4-yl)amino)methyl)-3-(5,6-dihydrocyclopenta[c]pyrazol-1(4H)-yl)-N-(methyl-d3)azetidine-1-carboxamide], 0.1 to 100 nM; in that of `[2H]C([2H])([2H])NC(=O)N1CC(CNc2cc(C(F)(F)F)nc3ccc(Cl)cc23)(n2cc(CC#N)cn2)C1` [Example 71, 3-(((6-Chloro-2-(trifluoromethyl)quinolin-4-yl)amino)methyl)-3-(4-(cyanomethyl)-1H-pyrazol-1-yl)-N-(methyl-d3)azetidine-1-carboxamide], 100 to 1000 nM.
`Cn1nccc1NC1CC(CNc2cc(C(F)(F)F)nc3ccc(Cl)cc23)(c2ccc(F)cn2)C1` (centres unmarked) [Example 72, 6-Chloro-N-((1-(5-fluoropyridin-2-yl)-3-((1-methyl-1H-pyrazol-5-yl)amino)cyclobutyl)methyl)-2-(trifluoromethyl)quinolin-4-amine] displayed a concentration for half-maximal inhibition (IC50) on MRGPRX2 [3] of 0.1 to 100 nM.
Regarding `CN1CC(C(=O)NC2CC(CNc3cc(C(F)(F)F)nc4ccc(Cl)cc34)(c3ccccc3)C2)C1` (centres unmarked) [Example 75, N-(3-(((6-Chloro-2-(trifluoromethyl)quinolin-4-yl)amino)methyl)-3-phenylcyclobutyl)-1-methylazetidine-3-carboxamide], the IC50 at MRGPRX2 [3] fell in the range of 0.1 to 100 nM.
On the same count and under the same terms, in the case of `CN1CCC(C(=O)NC2CC(CNc3cc(C(F)(F)F)nc4ccc(Cl)cc34)(c3ccccc3)C2)CC1` (centres unmarked) [Example 76, N-(3-(((6-Chloro-2-(trifluoromethyl)quinolin-4-yl)amino)methyl)-3-phenylcyclobutyl)-1-methylpiperidine-4-carboxamide] it was 0.1 to 100 nM; in that of `O=C(NC1CC(CNc2cc(C(F)(F)F)nc3ccc(Cl)cc23)(c2ccccc2)C1)C(O)C(F)(F)F` (centres unmarked) [Example 77, N-(3-(((6-Chloro-2-(trifluoromethyl)quinolin-4-yl)amino)methyl)-3-phenylcyclobutyl)-3,3,3-trifluoro-2-hydroxypropanamide], 0.1 to 100 nM.
Still for that read-out and setting: next, `COCCN1CC(CNc2cc(C(F)(F)F)nc3ccc(Cl)cc23)(c2ccc(F)cc2)C1` [Example 92, 6-Chloro-N-((3-(4-fluorophenyl)-1-(2-methoxyethyl)azetidin-3-yl)methyl)-2-(trifluoromethyl)quinolin-4-amine]: 0.1 to 100 nM.
As to `NS(=O)(=O)N1CCC(CNc2cc(C(F)(F)F)nc3ccc(Cl)cc23)(c2ccc(F)cn2)CC1` [Example 100, 4-(((6-Chloro-2-(trifluoromethyl)quinolin-4-yl)amino)methyl)-4-(5-fluoropyridin-2-yl) piperidine-1-sulfonamide], the IC50 on MRGPRX2 [1] and on MRGPRX2 [2] was 0.1 to 100 nM throughout.
For the compound `N#Cc1cnn(C2(CNc3cc(C(F)(F)F)nc4ccc(Cl)cc34)CN(C(N)=O)C2)c1` [Example 101, 3-(((6-Chloro-2-(trifluoromethyl)quinolin-4-yl)amino)methyl)-3-(4-cyano-1H-pyrazol-1-yl)azetidine-1-carboxamide], the IC50 at MRGPRX2 [1] and on MRGPRX2 [2] was 0.1 to 100 nM in each case.
For the compound `COc1cnn(C2(CNc3cc(C(F)(F)F)nc4ccc(Cl)cc34)CN(C(N)=O)C2)c1` [Example 102, 3-(((6-Chloro-2-(trifluoromethyl)quinolin-4-yl)amino)methyl)-3-(4-methoxy-1H-pyrazol-1-yl)azetidine-1-carboxamide], the IC50 was in the range of 0.1 to 100 nM at MRGPRX2 [1] and 100 to 1000 nM on MRGPRX2 [2].
In the case of `Cc1ccn(C2(CNc3cc(C(F)(F)F)nc4ccc(Cl)cc34)CN(C(N)=O)C2)n1` [Example 103, 3-(((6-Chloro-2-(trifluoromethyl)quinolin-4-yl)amino)methyl)-3-(3-methyl-1H-pyrazol-1-yl)azetidine-1-carboxamide], the IC50 at MRGPRX2 [1] and on MRGPRX2 [2] was 0.1 to 100 nM each time.
As to `N#Cc1ccn(C2(CNc3cc(C(F)(F)F)nc4ccc(Cl)cc34)CN(C(N)=O)C2)n1` [Example 104, 3-(((6-Chloro-2-(trifluoromethyl)quinolin-4-yl)amino)methyl)-3-(3-cyano-1H-pyrazol-1-yl)azetidine-1-carboxamide], the IC50 on MRGPRX2 [1] and on MRGPRX2 [2] was 0.1 to 100 nM throughout.
